Results from paper PMC9570490, “Novel Morpholine-Bearing Quinoline Derivatives as Potential Cholinesterase Inhibitors: The Influence of Amine, Carbon Linkers and Phenylamino Groups” (International Journal of Molecular Sciences, 2022).
In brackets after ≈: the same amount, converted by molar mass. Entries after “also recorded” stand apart in the source; their conditions may differ. Like-named read-outs stand apart in the source and are kept apart here. Marks after values point to notes of the source that are not given here.

Experiments:
[1] = Lipophilicity (LogP) determination, shake-flask octanol/water; type: physicochemical; conditions: HPLC, read-out: LogP (experimental)
Text: For anti-Alzheimer drug candidates, the ability to cross the blood–brain barrier (BBB) and to enter the central nervous system (CNS) is crucial to achieve their pharmacological target binding and activity, and CNS drugs require more strict rules for a successful penetration. […] Besides, for molecules to penetrate the BBB, a topological polar surface area (TPSA) value less than 90 Å ^2 is usually needed and molecules with a TPSA of greater than 120 Å ^2 tend to be poor in permeating cell membranes. Therefore, the molar mass (MW), LogP, and TPSA of all target compounds were simulated by ChemDraw 19.0 (Table 1). […] Because LogP was thought as an important physicochemical parameter to evaluate the ability to cross BBB, the LogP of some compounds was further assessed in experiments.
The lipophilicities of test compounds were determined using the traditional shake-flask method. A solid test compound (2 mg) was placed into a 10 mL pear-shaped flask, and measured volumes of octanol and water were added for logP determination. The resulting biphasic mixture was stirred for 24 h and then left without stirring for 12 h to allow phase separation. The test compound in each phase was sampled and quantitated using HPLC. The areas under the peaks were divided and the log taken.

[2] = Water solubility, shake-flask method; type: physicochemical; conditions: thermodynamic from solid, double distilled water, 37 °C
Experimental: Water solubility is regarded as another vital descriptor for BBB penetration, where high solubility is considered as a prerequisite for a rapid absorption and higher bioavailability of a drug candidate. […] With this experiment, we have obtained their data as 0.62, 3.03, 12.9, and […] for the selected compounds 11a, 11g, 12a, and 12c, respectively.
Solubility was determined by using the shake-flask method.The desired amount of the compound was placed in a test tube, to which an appropriate amount of double distilled water was introduced. The suspension was agitated on a plate shaker at 37 °C for 24 h. After centrifuging, HPLC analyses of supernatant was performed. The solubility of the compound was obtained from its HPLC result.

[3] = target: T1, AChE (EC 3.1.1.7, from electric eel) (Electrophorus electricus, UniProt O42275); experiment: biochemical; conditions: for IC50: means ± SD, at least three independents
T1 construct: purchased Sigma-Aldrich
T1 sequence (O42275 24-633): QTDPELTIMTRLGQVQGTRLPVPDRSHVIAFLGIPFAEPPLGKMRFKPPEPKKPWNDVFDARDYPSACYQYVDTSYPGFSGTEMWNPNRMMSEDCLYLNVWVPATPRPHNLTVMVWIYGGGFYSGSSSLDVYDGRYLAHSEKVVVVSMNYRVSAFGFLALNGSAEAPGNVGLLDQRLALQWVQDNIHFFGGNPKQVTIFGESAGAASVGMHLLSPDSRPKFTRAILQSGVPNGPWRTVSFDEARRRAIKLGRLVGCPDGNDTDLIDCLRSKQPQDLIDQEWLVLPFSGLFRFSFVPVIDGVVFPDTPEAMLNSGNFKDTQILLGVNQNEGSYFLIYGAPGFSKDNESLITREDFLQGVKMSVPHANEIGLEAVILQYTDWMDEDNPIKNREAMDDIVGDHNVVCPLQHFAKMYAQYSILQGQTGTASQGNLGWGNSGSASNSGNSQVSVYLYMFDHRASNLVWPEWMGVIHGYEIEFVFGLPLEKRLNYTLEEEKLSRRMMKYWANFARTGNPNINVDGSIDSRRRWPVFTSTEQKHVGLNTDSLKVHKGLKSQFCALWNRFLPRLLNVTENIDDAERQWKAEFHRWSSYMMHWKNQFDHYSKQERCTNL
Experimental: (§1) AChE and BChE inhibitory activities of compounds were determined by using a modified Ellman’s method. AChE (EC 3.1.1.7, from electric eel), BChE (EC 3.1.1.8, from horse serum), 5,5′-dithiobis(2nitrobenzoic acid) (DTNB), acetylthiocholine iodide (ATCI) and butyrylthiocholine iodide (BTCI) were purchased from Sigma-Aldrich. The reaction mixture contained 140 μL of 100 mM sodium phosphate buffer (pH 8.0), the enzyme solution (either 0.05 U/mL of AChE, 20 μL; or 0.05 U/mL of BChE, 20 μL), and test compound (20 μL). Assayed solutions of test compounds were pre-incubated with corresponding ChE at 25 °C for 15 min. The reaction was initiated by the addition of 10 μL of 10 mM DTNB and 10 μL of 7.5 mM substrate (ATCI or BTCI). The activity was determined by measuring the increase in absorbance at 412 nm at 37 °C in 10 min intervals using a microplate reader. The percentage of inhibition was calculated from the measured data as follows: (Ac − Ai)/Ac × 100%, where Ai and Ac represent the change in the absorbance in the presence of inhibitor and without inhibitor, respectively.

[4] = target: T2, BChE (EC 3.1.1.8, from horse serum) (Equus caballus, UniProt P81908); experiment: biochemical; conditions: means ± SD, at least three independents
T2 construct: BChE (EC 3.1.1.8, from horse serum); purchased Sigma-Aldrich; host or cells: horse serum
T2 sequence (P81908 whole entry): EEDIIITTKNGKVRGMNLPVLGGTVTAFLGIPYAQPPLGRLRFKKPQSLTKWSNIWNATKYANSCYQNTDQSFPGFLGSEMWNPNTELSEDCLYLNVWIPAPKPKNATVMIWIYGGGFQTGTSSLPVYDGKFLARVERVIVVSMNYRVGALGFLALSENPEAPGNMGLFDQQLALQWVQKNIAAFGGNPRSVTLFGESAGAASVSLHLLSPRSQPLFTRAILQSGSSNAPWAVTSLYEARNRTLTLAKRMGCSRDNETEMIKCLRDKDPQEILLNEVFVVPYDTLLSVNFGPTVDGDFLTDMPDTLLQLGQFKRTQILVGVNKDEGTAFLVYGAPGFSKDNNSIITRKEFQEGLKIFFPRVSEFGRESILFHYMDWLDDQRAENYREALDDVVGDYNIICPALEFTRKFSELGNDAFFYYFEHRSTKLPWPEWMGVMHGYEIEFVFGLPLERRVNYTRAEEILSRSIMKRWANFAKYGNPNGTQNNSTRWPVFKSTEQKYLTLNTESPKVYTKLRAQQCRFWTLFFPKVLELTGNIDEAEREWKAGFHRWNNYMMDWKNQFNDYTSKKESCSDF
Experimental: as §1

[5] = ABTS radical-scavenging assay
Experimental: ABTS radical-scavenging activity was measured by using the modified method. The test compound was dissolved in ethanol as 1.0 mg/mL, 0.5 mg/mL, 0.25 mg/mL, 0.125 mg/mL, 0.0625 mg/mL, and 0.03125 mg/mL. Similarly, the ethanol solution of Trolox with the same concentration gradient was prepared as a positive control. ABTS solution at a concentration of 7 mM and potassium persulfate solution at a concentration of 2.45 mM with distilled water were also prepared. The ABTS solution and the potassium persulfate solution were mixed in equal amounts, and then placed in the dark and protected from light for 12 h. The ABTS standard solution was diluted with ethanol until the absorbance value at 734 nm was in the range of 0.7 ± 0.05. Then, 3900 µL of ABTS cation solution was mixed with 100 µL of test compound at different concentrations. The samples were kept in the dark for 10 min at room temperature and absorption was measured at 734 nm on a spectrophotometer. The percentage of ABTS radical-scavenging activity was calculated as follows: (Ac−Ai)/Ac × 100%, where Ai and Ac represented the change in absorbance in the presence and absence of the test sample, respectively.

[6] = target: T3, AChE (Electrophorus electricus, UniProt O42275); experiment: Enzyme kinetic analysis against AChE (reversibility, Lineweaver-Burk, Ki); type: biochemical; conditions: for type of AChE inhibition: Lineweaver-Burk plots; for Ki: Lineweaver-Burk secondary plots, substrate ATCI, read-out: Ki (inhibition constant) against AChE; for reversibility of AChE inhibition: plots of initial velocity versus enzyme concentration
T3 construct: purchased Sigma-Aldrich
T3 sequence (O42275 24-633): as the sequence (O42275 24-633) above
Experimental: The kinetic characteristics of two active compounds, 11a and 11g, against AChE was also studied to elucidate the type of inhibition and the inhibition constant. The analysis was carried out by measuring the enzyme’s activity at different concentrations of substrate (0 μM–10.0 μM). The acquired inhibition data were further depicted with the Lineweaver–Burk method followed by inhibition constant (Ki) calculation using Lineweaver–Burk secondary plots. […] This pattern of inhibition is usually the result of a combination of partially competitive and non-competitive inhibitors.
In order to investigate the reversibility of compounds 11a and 11g to AChE, different concentrations of compounds (0−10 μM) and five different concentrations of AChE (0.025−0.10 U/mL) were measured at 412 nm after a 2 min incubation at 37 °C. Values were measured in triplicate for the velocity and enzyme concentration profiles. Velocity (V) was calculated from the measured data as follows: V = (Ac−Ai)/2, where Ai and Ac represent the change in absorbance in the presence and absence of […], respectively. All data were analyzed by OriginPro 2021.
For each experiment, the reaction was started by adding substrate and the progression curve was recorded at 412 nm after two minutes of incubation at 37°C. […] The slopes of these inverse plots were then plotted against the compound concentrations in the correlation analysis, and Ki was determined as the intercept on the negative x-axis. All rate measurements were performed in triplicate and data analysis was performed using OriginPro 2021.

[7] = target: T2, BChE (EC 3.1.1.8, from horse serum); conditions: cited from earlier work
[8] = target: T1, AChE (EC 3.1.1.7, from electric eel); conditions: cited from earlier work

SMILES	logP at 24 h [1]	solubility at 24 h [2] [µg/mL]	IC50 [3] [µM]	IC50 [4] [µM]	ABTS radical-scavenging IC50 [5] [µg/mL]	IC50 [5] [µM]	type of AChE inhibition [6]	Ki [6] [µM]	reversibility of AChE inhibition [6]	SI for AChE = IC50 BChE/IC50 AChE [3]	IC50 [7] [µM]	IC50 [8] [µM]	SI for AChE = IC50 BChE/IC50 AChE [8]
COc1cc2c(Nc3ccccc3)c([N+](=O)[O-])cnc2cc1OCCN1CCOCC1 [11g, 6-Methoxy-7-(2-Morpholinoethoxy)-3-Nitro-4-Phenylamino-Quinoline]	3.55	3030 (≈ 7.14 mM)	1.94 ± 0.13	28.4 ± 1.85	17.50 ± 2.71	41.2 ± 6.38	mixed-type AChE inhibitors; also recorded: mixed type of inhibition	0.64	reversible inhibitors				
COc1cc2c(Nc3ccccc3)c([N+](=O)[O-])cnc2cc1OCCCN1CCOCC1 [11a, 6-Methoxy-7-(3-Morpholinopropoxy)-3-Nitro-4-Phenylamino-Quinoline]	3.82	620 (≈ 1.41 mM)	4.94 ± 0.15	80.9 ± 2.31			mixed-type AChE inhibitors; also recorded: mixed type of inhibition	2.03	reversible inhibitors	16.37			
COc1ccc(Nc2c([N+](=O)[O-])cnc3cc(OCCCN4CCC(C)CC4)c(OC)cc23)cc1 [C]											18.5 ± 1.2	1.2 ± 0.18	15.43 ^f
COc1cc2c(Nc3ccccc3Cl)c([N+](=O)[O-])cnc2cc1OCCCN(C)Cc1ccccc1 [B]													3.08 ^e
